Assay results published in US10093611B2, “Benzocycloalkenes as antifungal agents” (Bayer Intellectual Property GmbH, priority 2010, dated 2018).

Tests used:
[1] = system: Alternaria solani; assay: In vivo preventive test on Alternaria solani (tomato); details: 500 ppm of active ingredient, evaluated 7 days after inoculation
Description: EXAMPLE A: IN VIVO PREVENTIVE TEST ON ALTERNARIA SOLANI (TOMATO) Solvent: 49 parts by weight of N,N-dimethylformamide Emulsifier: 1 part by weight of Alkylarylpolyglycolether To produce a suitable preparation of active compound, 1 part by weight of active compound is mixed with the stated amounts of solvent and emulsifier, and the concentrate is diluted with water to the desired concentration. To test for preventive activity, young plants are sprayed with the preparation of active compound at the stated rate of application. One day after this treatment, the plants are inoculated with an aqueous spore suspension of Alternaria solani. The plants remain for one day in an incubation cabinet at approximately 22° C. and a relative atmospheric humidity of 100%. Then the plants are placed in an incubation cabinet at approximately 20° C. and a relative atmospheric humidity of 96%. The test is evaluated 7 days after the inoculation. 0% means an efficacy which corresponds to that of the control while an efficacy of 100% means that no disease is observed. Under these conditions, good (at least 80%) to total protection is observed at a dose of 500 ppm of active ingredient with the following compounds from table A: […]

[2] = system: Leptosphaeria nodorum; assay: In vivo preventive test on Leptosphaeria nodorum (wheat); details: 500 ppm of active ingredient, evaluated 8 days after inoculation
Description: EXAMPLE D: IN VIVO PREVENTIVE TEST ON LEPTOSPHAERIA NODORUM (WHEAT) Solvent: 49 parts by weight of N,N-dimethylacetamide Emulsifier: 1 part by weight of alkylaryl polyglycol ether To produce a suitable preparation of active compound, 1 part by weight of active compound or the compound combination is mixed with the stated amounts of solvent and emulsifier, and the concentrate is diluted with water to the desired concentration. To test for protective activity, young plants are sprayed with a preparation of active compound or active compound combination at the stated rate of application. After the spray coating has dried on, the plants are sprayed with a spore suspension of Leptosphaeria nodorum. The plants remain for 48 hours in an incubation cabinet at 20° C. and a relative atmospheric humidity of 100%. The plants are placed in a greenhouse at a temperature of approximately 22° C. and a relative atmospheric humidity of approximately 80%. The test is evaluated 8 days after the inoculation. 0% means an efficacy which corresponds to that of the control, while an efficacy of 100% means that no disease is observed. Under these conditions, good (at least 75%) to total protection is observed at a dose of 500 ppm of active ingredient with the following compounds from table D: Under the same conditions, excellent protection (greater than 94%) is observed at a dose of 500 ppm of active ingredient with compound 2, whereas poor protection (less than 30%) is observed with the isosteric analogue compound CMP1 claimed in WO-2009/016218 as in table D2.

[3] = system: Puccinia triticina; assay: In vivo preventive test on Puccinia triticina (wheat); details: 500 ppm of active ingredient, evaluated 8 days after inoculation
Description: EXAMPLE E: IN VIVO PREVENTIVE TEST ON PUCCINIA TRITICINA (WHEAT)
Solvent: 49 parts by weight of N,N-dimethylacetamide
Emulsifier: 1 part by weight of alkylaryl polyglycol ether
To produce a suitable preparation of active compound, 1 part by weight of active compound or active compound combination is mixed with the stated amounts of solvent and emulsifier, and the concentrate is diluted with water to the desired concentration.
To test for preventive activity, young plants are sprayed with the preparation of active compound or active compound combination at the stated rate of application.
After the spray coating has been dried, the plants are sprayed with a spore suspension of Puccinia triticina. The plants remain for 48 hours in an incubation cabinet at approximately 20° C. and a relative atmospheric humidity of approximately 100%.
The plants are placed in the greenhouse at a temperature of approximately 20° C. and a relative atmospheric humidity of approximately 80%.
The test is evaluated 8 days after the inoculation. 0% means an efficacy which corresponds to that of the untreated control, while an efficacy of 100% means that no disease is observed.
Under these conditions, high (at least 85%) to total protection is observed at a dose of 500 ppm of active ingredient with the following compounds from table E: […]

[4] = system: Pyrenophora teres; assay: In vivo preventive test on Pyrenophora teres (barley); details: 500 ppm of active ingredient, evaluated 7-9 days after inoculation
Description: EXAMPLE F: IN VIVO PREVENTIVE TEST ON PYRENOPHORA TERES (BARLEY) Solvent: 49 parts by weight of N,N-dimethylformamide Emulsifier: 1 part by weight of Alkylarylpolyglycolether To produce a suitable preparation of active compound, 1 part by weight of active compound is mixed with the stated amounts of solvent and emulsifier, and the concentrate is diluted with water to the desired concentration. To test for preventive activity, young plants are sprayed with the preparation of active compound at the stated rate of application. One day after this treatment, the plants are inoculated with an aqueous spore suspension of Pyrenophora teres. The plants remain for 48 hours in an incubation cabinet at 22° C. and a relative atmospheric humidity of 100%. Then the plants are placed in a greenhouse at a temperature of approximately 20° C. and a relative atmospheric humidity of approximately 80%. The test is evaluated 7-9 days after the inoculation. 0% means an efficacy which corresponds to that of the untreated control while an efficacy of 100% means that no disease is observed. Under these conditions, high (at least 90%) to total protection is observed at a dose of 500 ppm of active ingredient with the following compounds from table F: […]

[5] = system: Septoria tritici; assay: In vivo preventive test on Septoria tritici (wheat); details: 500 ppm of active ingredient, evaluated 21 days after inoculation
Description: EXAMPLE G: IN VIVO PREVENTIVE TEST ON SEPTORIA TRITICI (WHEAT) Solvent: 49 parts by weight of N,N-dimethylacetamide Emulsifier: 1 part by weight of alkylaryl polyglycol ether To produce a suitable preparation of active compound, 1 part by weight of active compound or active compound combination is mixed with the stated amounts of solvent and emulsifier, and the concentrate is diluted with water to the desired concentration. To test for preventive activity, young plants are sprayed with the preparation of active compound or active compound combination at the stated rate of application. After the spray coating has dried on, the plants are sprayed with a spore suspension of Septoria tritici. The plants remain for 48 hours in an incubation cabinet at approximately 20° C. and a relative atmospheric humidity of approximately 100% and then 60 hours at approximately 15° C. in a translucent incubation cabinet at a relative atmospheric humidity of approximately 100%. The plants are placed in a greenhouse at a temperature of approximately 15° C. and a relative atmospheric humidity of approximately 80%. The test is evaluated 21 days after the inoculation. 0% means an efficacy which corresponds to that of the control, while an efficacy of 100% means that no disease is observed. Under these conditions, total protection is observed at a dose of 500 ppm of active ingredient with the following compounds from table G: […]

With Cc1nn(C)c(F)c1C(=O)N(C1CC1)C(C)C1Cc2ccccc2C1 (stereo not drawn) [Example 11] the Efficacy [1] was 100%, the Efficacy [2] was 100% and the Efficacy [3] was 100%. It also gave an Efficacy [4] of 100% and an Efficacy [5] of 100%.

CC(C1CCc2ccccc2C1)N(C(=O)c1c(C(F)F)nn(C)c1F)C1CC1 (stereo not drawn) [Example 16] gave an Efficacy [1] of 95%, an Efficacy [2] of 86% and an Efficacy [3] of 100%. It also gave an Efficacy [4] of 100% and an Efficacy [5] of 100%.

With CCC(C1CCc2ccccc2C1)N(C(=O)c1c(C(F)F)nn(C)c1F)C1CC1 (stereo not drawn) [Example 17] the Efficacy [1] was 80%, the Efficacy [2] was 80% and the Efficacy [3] was 88%. The Efficacy [4] was 100% and the Efficacy [5] was 100%.

Work on CCc1nn(C)c(F)c1C(=O)N(C1CC1)C(C)C1Cc2ccccc2C1 (stereo not drawn) [Example 12] yielded an Efficacy [1] of 100%, an Efficacy [2] of 100% and an Efficacy [3] of 100%. For the same compound, the Efficacy [4] was 100% and the Efficacy [5] was 100%.

For CC(C1Cc2ccccc2C1)N(C(=O)c1c(C(F)F)nn(C)c1F)C1CC1 (stereo not drawn) [Example 14, N-cyclopropyl-3-(difluoromethyl)-N-[1-(indan-2-yl)ethyl]-5-fluoro-1-methyl-1H-pyrazole-4-carboxamide], the Efficacy [1] was 95%, the Efficacy [2] was 100% and the Efficacy [3] was 100%. For the same compound, the Efficacy [4] was 100% and the Efficacy [5] was 100%.

For CC(C1Cc2ccccc2C1)N(C(=O)c1cn(C)nc1C(F)F)C1CC1 (stereo not drawn) [Example 13], the Efficacy [1] was 100%, the Efficacy [2] was 100% and the Efficacy [3] was 100%. It also gave an Efficacy [4] of 100% and an Efficacy [5] of 100%.
